Source: ChEMBL document CHEMBL1201862, “PubChem BioAssay data set” (2004)
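How tested: cells in 96-well plates exposed to compound for 48 hours at five concentrations. At the GI50, growth is halved.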 Calls of active or inactive are those of the source. Rule as the data show it: active = GI50 up to about 1.1 µM and inactive = higher.

What was measured:
Assay in all cases: NCI anticancer screen, dose series, 48 h
SR = tested on: SR
K562 = tested on: K562
HCC 2998 = tested on: HCC 2998
MDA-N = tested on: MDA-N
TK-10 = tested on: TK-10
MCF7 = tested on: MCF7
HCT-15 = tested on: HCT-15
MDA-MB-435 = tested on: MDA-MB-435
UACC-257 = tested on: UACC-257
NCI-H23 = tested on: NCI-H23
HOP-62 = tested on: HOP-62
U-251 = tested on: U-251
OVCAR-3 = tested on: OVCAR-3
HL-60 = tested on: HL-60
SK-OV-3 = tested on: SK-OV-3
SF-295 = tested on: SF-295
RPMI-8226 = tested on: RPMI-8226
BT-549 = tested on: BT-549
OVCAR-4 = tested on: OVCAR-4

Row | Compound | GI50 (SR) | GI50 (K562) | GI50 (HCC 2998) | GI50 (MDA-N) | GI50 (TK-10) | GI50 (MCF7) | GI50 (HCT-15) | GI50 (MDA-MB-435) | GI50 (UACC-257) | GI50 (NCI-H23) | GI50 (HOP-62) | GI50 (U-251) | GI50 (OVCAR-3) | GI50 (HL-60) | GI50 (SK-OV-3) | GI50 (SF-295) | GI50 (RPMI-8226) | GI50 (BT-549) | GI50 (OVCAR-4)
1 | CN(C)c1ccc(/C=C/c2ccnc3ccccc23)cc1 | 30.5 µM (inactive) | 33.5 µM (inactive) | > 100 µM (inactive) | 17.7 µM (inactive) | 65.8 µM (inactive) | 90.2 µM (inactive) | 61.1 µM | 23.1 µM (inactive) | > 100 µM (inactive) | 39.4 µM (inactive) | > 100 µM (inactive) | 84.7 µM (inactive) | > 100 µM (inactive) | 31.6 µM (inactive) | 54.5 µM (inactive) | 54.7 µM (inactive) | 51.1 µM (inactive) | 18.2 µM (inactive) | 55.6 µM (inactive)
2 | CC(=O)OC(C)(C)/C=C/C(=O)[C@](C)(O)[C@H]1[C@H](O)C[C@@]2(C)[C@@H]3CC=C4[C@@H](C[C@H](O)C(=O)C4(C)C)[C@]3(C)C(=O)C[C@]12C | < 0.01 µM (active) | < 0.01 µM (active) | < 0.01 µM (active) | < 0.01 µM (active) | < 0.01 µM (active) | < 0.01 µM (active) | < 0.01 µM | < 0.01 µM (active) | < 0.01 µM (active) | 0.0873 µM (active) | < 0.0111 µM (active) | < 0.01 µM (active) | < 0.01 µM (active) | < 0.01 µM (active) | < 0.01 µM (active) | < 0.01 µM (active) | < 0.01 µM (active) | < 0.01 µM (active) | < 0.01 µM (active)
3 | CC1(C)C2CC(O)C1(C)CC2=O (stereo not given) | > 100 µM (inactive) | > 100 µM (inactive) | > 100 µM (inactive) | > 100 µM (inactive) | > 100 µM (inactive) | > 100 µM (inactive) | > 100 µM | > 100 µM (inactive) | > 100 µM (inactive) | > 100 µM (inactive) | > 100 µM (inactive) | > 100 µM (inactive) | > 100 µM (inactive) | > 100 µM (inactive) | > 100 µM (inactive) | > 100 µM (inactive) | > 100 µM (inactive) | > 100 µM (inactive) | > 100 µM (inactive)
4 | COc1ccc(C[C@@H]2OC3(C=CC(=O)C=C3)O[C@H]2Cc2ccc(OC)cc2)cc1 | 0.176 µM (active) | 0.61 µM (active) | 1.52 µM (inactive) | 0.476 µM (active) | 0.281 µM (active) | 0.558 µM (active) | 0.255 µM | 1.53 µM (inactive) | 1.46 µM (inactive) | 1.37 µM (inactive) | 1.59 µM (inactive) | 1.28 µM (inactive) | 0.673 µM (active) | 1.52 µM (inactive) | 6.15 µM (inactive) | 2.99 µM (inactive) | 0.202 µM (active) | 0.221 µM (active) | 0.957 µM (active)
5 | CC(=O)OCC1=C2C(OC(=O)C(C)C)CC3(COC(C)=O)OC3/C=C\C3(C)OC3C2OC1=O (stereo not given) | > 100 µM (inactive) | > 100 µM (inactive) | > 100 µM (inactive) | > 100 µM (inactive) | > 100 µM (inactive) | > 100 µM (inactive) | > 100 µM | > 100 µM (inactive) | > 100 µM (inactive) | > 100 µM (inactive) | > 100 µM (inactive) | > 100 µM (inactive) | > 100 µM (inactive) | 34.4 µM (inactive) | > 100 µM (inactive) | > 100 µM (inactive) | > 100 µM (inactive) | > 100 µM (inactive) | > 100 µM (inactive)
6 | CC1(C)COC(c2ccccc2-c2ccccc2)=N1 | > 100 µM (inactive) | 90.2 µM (inactive) | > 100 µM (inactive) | > 100 µM (inactive) | – | > 100 µM (inactive) | > 100 µM | > 100 µM (inactive) | 66.1 µM (inactive) | 88.5 µM (inactive) | > 100 µM (inactive) | 89.5 µM (inactive) | > 100 µM (inactive) | > 100 µM (inactive) | > 100 µM (inactive) | 53.7 µM (inactive) | > 100 µM (inactive) | > 100 µM (inactive) | > 100 µM (inactive)
7 | COc1ccc([N+](=O)[O-])c2c(NCCCN(C)C)c3ccccc3nc12 | < 0.01 µM (active) | 0.133 µM (active) | < 0.0319 µM (active) | 0.425 µM (active) | 0.399 µM (active) | 0.0155 µM (active) | 0.0935 µM | 0.306 µM (active) | 0.23 µM (active) | 0.0625 µM (active) | 0.0998 µM (active) | 0.152 µM (active) | 0.125 µM (active) | 0.662 µM (active) | 0.33 µM (active) | 0.107 µM (active) | 0.218 µM (active) | 0.701 µM (active) | 0.0354 µM (active)
8 | C/C(=N\Nc1ccc([N+](=O)[O-])cc1[N+](=O)[O-])c1sc(-n2nc(-c3ccccc3)cc2-c2ccccc2)nc1C | 18.3 µM (inactive) | – | 32.9 µM (inactive) | 46.8 µM (inactive) | 27.9 µM (inactive) | 46.5 µM (inactive) | 38.6 µM | 33 µM (inactive) | 20.8 µM (inactive) | 32.9 µM (inactive) | 70.3 µM (inactive) | 42.7 µM (inactive) | 39.4 µM (inactive) | 12.6 µM (inactive) | 24.5 µM (inactive) | 35.7 µM (inactive) | 20.9 µM (inactive) | 36.9 µM (inactive) | 43.9 µM (inactive)
9 | O=[N+]([O-])c1ccc([I+]c2ccccc2)cc1 | 2.53 µM (inactive) | 4.19 µM (inactive) | 7.28 µM (inactive) | 6.56 µM (inactive) | 8.91 µM (inactive) | 4.97 µM (inactive) | 7.35 µM | 8.2 µM (inactive) | 4.29 µM (inactive) | 2.33 µM (inactive) | 11.6 µM (inactive) | 5.46 µM (inactive) | 3.13 µM (inactive) | 5.4 µM (inactive) | 2.07 µM (inactive) | 1.27 µM (inactive) | 11.2 µM (inactive) | 2.8 µM (inactive) | 4.33 µM (inactive)
10 | CC(=O)N(C(=O)CC(=O)NNCc1ccccc1Cl)c1ccc(Cl)cc1 | > 10 µM (inactive) | > 10 µM (inactive) | > 10 µM (inactive) | > 10 µM (inactive) | > 10 µM (inactive) | 5.97 µM (inactive) | > 10 µM | > 10 µM (inactive) | > 10 µM (inactive) | > 10 µM (inactive) | > 10 µM (inactive) | > 10 µM (inactive) | > 10 µM (inactive) | > 10 µM (inactive) | > 10 µM (inactive) | > 10 µM (inactive) | > 10 µM (inactive) | > 10 µM (inactive) | > 10 µM (inactive)
11 | N#CN1C2CCC1CC(=O)C2 | > 100 µM (inactive) | > 100 µM (inactive) | > 100 µM (inactive) | > 100 µM (inactive) | > 100 µM (inactive) | > 100 µM (inactive) | > 100 µM | > 100 µM (inactive) | > 100 µM (inactive) | > 100 µM (inactive) | > 100 µM (inactive) | > 100 µM (inactive) | > 100 µM (inactive) | > 100 µM (inactive) | > 100 µM (inactive) | > 100 µM (inactive) | > 100 µM (inactive) | > 100 µM (inactive) | > 100 µM (inactive)
12 | Cc1cccc(/C=N/NC(=S)NC(C)(C)C)n1 | 23.7 µM (inactive) | 5.15 µM (inactive) | 56.1 µM (inactive) | > 100 µM (inactive) | 75.2 µM (inactive) | 18.5 µM (inactive) | 24.8 µM | > 100 µM (inactive) | > 100 µM (inactive) | > 100 µM (inactive) | 98.9 µM (inactive) | 93.3 µM (inactive) | 30.8 µM (inactive) | 85.5 µM (inactive) | > 100 µM (inactive) | > 100 µM (inactive) | 32.9 µM (inactive) | > 100 µM (inactive) | 62.7 µM (inactive)
13 | Cc1cc2c(cc1C)C(=O)/C(=N/Nc1ccc(F)cc1)CCO2 | > 100 µM (inactive) | > 100 µM (inactive) | > 100 µM (inactive) | > 100 µM (inactive) | > 100 µM (inactive) | > 100 µM (inactive) | > 100 µM | > 100 µM (inactive) | > 100 µM (inactive) | > 100 µM (inactive) | > 100 µM (inactive) | > 100 µM (inactive) | > 100 µM (inactive) | 26.4 µM (inactive) | > 100 µM (inactive) | 27.1 µM (inactive) | > 100 µM (inactive) | > 100 µM (inactive) | > 100 µM (inactive)
14 | O=c1[nH][nH]c(=O)n1CCCCCCn1c(=O)[nH][nH]c1=O | > 100 µM (inactive) | > 100 µM (inactive) | > 100 µM (inactive) | > 100 µM (inactive) | > 100 µM (inactive) | > 100 µM (inactive) | > 100 µM | > 100 µM (inactive) | > 100 µM (inactive) | > 100 µM (inactive) | – | > 100 µM (inactive) | > 100 µM (inactive) | > 100 µM (inactive) | > 100 µM (inactive) | – | > 100 µM (inactive) | > 100 µM (inactive) | > 100 µM (inactive)
15 | COC(=O)CNC(=O)C(CSC(=O)OCC1c2ccccc2-c2ccccc21)NC(=O)CCC(NC(=O)OCC1c2ccccc2-c2ccccc21)C(=O)OC (stereo not given) | 12.6 µM (inactive) | 28.7 µM (inactive) | 21.2 µM (inactive) | 18.8 µM (inactive) | 36.7 µM (inactive) | 18.5 µM (inactive) | 28 µM | 25.7 µM (inactive) | 32.5 µM (inactive) | 17.5 µM (inactive) | 21.1 µM (inactive) | – | 18.1 µM (inactive) | 19.1 µM (inactive) | 30.3 µM (inactive) | 17.4 µM (inactive) | 23.1 µM (inactive) | 17.5 µM (inactive) | 16.9 µM (inactive)
